Legend:
[1] = compound: T1, C[C@H]1CNCCN1c1nccc(-c2noc3c2CCC[C@@]32CCCc3sc(N)c(C#N)c32)n1 [BI-2493]; details: 5 days
Description: (§1)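 PRISM pooled barcoded cancer cell line viability screen (Broad Institute) with BI-2493 at 8 doses in threefold dilutions from 0.00457 to 10 µmol/L, 5-day treatment; curves fitted per cell line. IC50 is undefined (placeholder) for resistant lines. AUC is capped at 1, and sensitivity is reported as 1 − AUC.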

[2] = compound: T1, BI-2493; assay: 1 - AUC of viability dose-response curve (sensitivity) (fraction); higher = more sensitive; details: 5 days
Description: as §1

Test System	IC50 of cell viability [1] [µM]	1 - AUC of viability dose-response curve [2]
SNU201_CENTRAL_NERVOUS_SYSTEM	> 10	0.0868
SNU213_PANCREAS	5.63	0.106
SNU216_STOMACH	8.63	0.0735
SNU245_BILIARY_TRACT	0.731	0.381
SNU308_BILIARY_TRACT	8.63	0.0812
SNU398_LIVER	3.55	0.176
SNU407_LARGE_INTESTINE	1.21	0.3
SNU410_PANCREAS	9.47	0.0692
SNU423_LIVER	3.81	0.152
SNU449_LIVER	7.3	0.0578
SNU466_CENTRAL_NERVOUS_SYSTEM	2.75	0.218
SNU489_CENTRAL_NERVOUS_SYSTEM	4.14	0.103
SNU638_STOMACH	8.32	0.119
SNU668_STOMACH	6.46	0.234
SNU685_ENDOMETRIUM	9.5	0.0102
SNU719_STOMACH	9.46	0.00913
SNU761_LIVER	2.4	0.297
SNU840_OVARY	7.7	0.0623
SNU869_BILIARY_TRACT	2.14	0.279
SNU886_LIVER	5.03	0.211
SNU899_UPPER_AERODIGESTIVE_TRACT	4.32	0.157
SNU1041_UPPER_AERODIGESTIVE_TRACT	9.15	0.019
SNU1066_UPPER_AERODIGESTIVE_TRACT	6.03	0.0923
SNU1076_UPPER_AERODIGESTIVE_TRACT	3.84	0.104

Test System	IC50 of cell viability [1] [µM]	1 - AUC of viability dose-response curve [2]
SNU1077_ENDOMETRIUM	8.81	0.0934
SNU1105_CENTRAL_NERVOUS_SYSTEM	4.12	0.157
SNU1196_BILIARY_TRACT	0.361	0.496
SNU1214_UPPER_AERODIGESTIVE_TRACT	0.175	0.482
SNU1544_LARGE_INTESTINE	2.68	0.203
SNU2372_BREAST	6.37	0.0682
SNUC2A_LARGE_INTESTINE	> 10	0.0882
SNUC4_LARGE_INTESTINE	5.72	0.162
SQ1_LUNG	3.68	0.153
SR786_HAEMATOPOIETIC_AND_LYMPHOID_TISSUE	7.44	0.0498
SSP25_BILIARY_TRACT	8.5	0.11
STM9101_SOFT_TISSUE	> 10	0.0387
SUDHL1_HAEMATOPOIETIC_AND_LYMPHOID_TISSUE	4.67	0.14
SUDHL8_HAEMATOPOIETIC_AND_LYMPHOID_TISSUE	9.1	0.0165
SUIT2_PANCREAS	4.96	0.123
SUM149PT_BREAST	3.94	0.168
SUM159PT_BREAST	7.31	0.064
SUPB15_HAEMATOPOIETIC_AND_LYMPHOID_TISSUE	3.13	0.149
SUPT11_HAEMATOPOIETIC_AND_LYMPHOID_TISSUE	5.2	0.0681
SUSA_TESTIS	1.09	0.243
SW13_ADRENAL_CORTEX	4.77	0.0973
SW156_KIDNEY	9.51	0.0358
SW579_THYROID	3.16	0.133

Source: the supplement of paper PMC11962398
